Data: patent US8445217B2, “Free solution measurement of molecular interactions by backscattering interferometry” (Vanderbilt University, priority 2007, dated 2013)
Like-named read-outs stand apart in the source and are kept apart here.

What was measured:
Calmodulin (CaM) [1] = target: T1, Calmodulin (CaM) (Homo sapiens, UniProt P0DP23); details: literature; read-out: published Kd values, calmodulin-calcium ion interaction; cited from earlier work
T1 construct: purchased Sigma, St. Louis, Mo

Calmodulin (CaM) [2] = target: T1, Calmodulin (CaM); experiment: BSI free-solution CaM-Ca^2+ interaction; assay type: binding; details: for Kd: 5 μM CaM, pH 7.5, 25° C.
Experimental: Homogeneous, label-free CaM-Ca^2+ interactions are quantified with BSI by real-time monitoring the sequential reactions of a constant concentration of 5 μM CaM with Ca^2+ solutions increasing in concentrations from 12.5-100 μM (FIG. 24A). Here CaM was buffered at pH=7.5 with 0.1M HEPES and 0.1M KCl, with its concentration held constant at 5 μM. In this aspect, the CaM solution contained a small amount of EGTA to chelate any free Ca^2+. The reactions were carried out in the same microfluidic chip molded in PDMS with the temperature fixed at 25° C. A 5 μM CaM solution and a 100 μM Ca^2+ solution both consisting of excess EGTA (i.e., 400 μM), served as the control.
Kinetic analysis using a single exponential gives rise to a plot of observed rates versus Ca^2+ concentration that is linear. A least squares analysis of the linear plot yields the slope, intercept, and their respective errors. […] Without wishing to be bound by theory, it is believed that the disparity in these two values was due likely to a less than optimal approach to fitting the kinetic data and the RI background present from unreacted ligand, particularly at high concentrations.
These experiments were conducted at 25±0.01° C. maintained by a thermoelectric temperature controller (MELCOR, Trenton, N.J.) coupled to a Peltier device. Binding experiments were monitored in real-time at frequencies ca. 50-100 Hz.
CaM was buffered at a pH=7.5 with 0.1M HEPES and 0.1M KCl with its concentration held constant throughout the experiment at 5 μM. The CaM solution contained a small amount of EGTA to chelate any free Ca^2+. BSI monitored, in real-time, the sequential reactions of 5 μM CaM with concentrations of Ca^2+ ranging from 12.5-100 μM.

control: change in signal above that observed in the absence of excess EGTA at equivalent concentrations (Calmodulin (CaM) [2]; 5 μM CaM and 100 μM Ca^2+, both with excess EGTA (400 μM)): < 3%
Kd (Calmodulin (CaM) [2]; 12.5-100 μM Ca^2+, read-out: Kd CaM-Ca^2+, kinetic analysis (observed rates versus Ca^2+ concentration)): 3.36 µM
Kd (Calmodulin (CaM) [2]; read-out: Kd CaM-Ca^2+, steady-state values analysed by Prism): 17.8 µM
Compound: [Ca+2] [Ca^2+]
Kd (Calmodulin (CaM) [1]): 1 to 10 µM
